Experimental data published in US9624214B2, “Amino-substituted imidazo[1,2-a]pyridinecarboxamides and their use” (BAYER PHARMA AKTIENGESELLSCHAFT, priority 2012, dated 2017).

Biological target: T1, recombinant guanylate cyclase reporter cell line (Rattus norvegicus, UniProt P19686+P20595)
T1 construct: expressed in transfected cells
T1 sequence (P20595 1-619): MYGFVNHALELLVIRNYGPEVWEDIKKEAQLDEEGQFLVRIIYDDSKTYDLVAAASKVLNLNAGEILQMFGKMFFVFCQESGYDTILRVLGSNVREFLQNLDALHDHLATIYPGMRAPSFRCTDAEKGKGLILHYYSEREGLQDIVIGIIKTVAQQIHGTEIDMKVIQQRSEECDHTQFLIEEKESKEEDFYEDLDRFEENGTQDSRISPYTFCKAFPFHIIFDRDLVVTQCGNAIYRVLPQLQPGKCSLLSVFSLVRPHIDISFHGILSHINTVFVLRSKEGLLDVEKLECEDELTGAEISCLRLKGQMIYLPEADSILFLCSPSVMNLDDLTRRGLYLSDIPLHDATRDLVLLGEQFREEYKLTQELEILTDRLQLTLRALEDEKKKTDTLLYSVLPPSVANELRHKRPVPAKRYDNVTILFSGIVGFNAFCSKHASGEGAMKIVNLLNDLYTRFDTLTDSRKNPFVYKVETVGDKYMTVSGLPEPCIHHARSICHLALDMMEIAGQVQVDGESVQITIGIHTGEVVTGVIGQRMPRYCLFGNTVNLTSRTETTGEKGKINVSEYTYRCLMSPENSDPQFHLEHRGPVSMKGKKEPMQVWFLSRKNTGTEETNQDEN
T1 sequence (P19686 1-690): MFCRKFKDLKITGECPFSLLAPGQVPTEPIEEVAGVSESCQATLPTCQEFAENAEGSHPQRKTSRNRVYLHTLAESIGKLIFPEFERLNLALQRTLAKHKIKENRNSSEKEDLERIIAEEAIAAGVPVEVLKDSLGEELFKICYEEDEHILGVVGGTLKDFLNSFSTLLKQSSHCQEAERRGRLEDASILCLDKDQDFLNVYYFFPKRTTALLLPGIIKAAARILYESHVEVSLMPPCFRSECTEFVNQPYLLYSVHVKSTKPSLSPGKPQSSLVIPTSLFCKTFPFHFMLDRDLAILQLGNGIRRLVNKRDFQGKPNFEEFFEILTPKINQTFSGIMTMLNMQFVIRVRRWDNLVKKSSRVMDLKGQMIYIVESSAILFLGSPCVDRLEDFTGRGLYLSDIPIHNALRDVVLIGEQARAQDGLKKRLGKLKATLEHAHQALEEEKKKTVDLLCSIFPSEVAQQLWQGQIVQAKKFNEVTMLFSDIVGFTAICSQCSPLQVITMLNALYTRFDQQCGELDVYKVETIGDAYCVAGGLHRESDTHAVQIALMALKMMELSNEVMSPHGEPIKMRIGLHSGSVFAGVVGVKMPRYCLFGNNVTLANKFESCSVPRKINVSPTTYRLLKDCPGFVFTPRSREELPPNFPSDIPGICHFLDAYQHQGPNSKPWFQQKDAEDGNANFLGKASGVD
Test: B-2. Action on recombinant guanylate cyclase reporter cell line
Format: cell-based
Settings: MEC = minimal effective concentration; in some cases mean values from individual determinations
Summary of the method: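 MEC values, meaning the lowest concentration producing a detectable response, were taken from a recombinant cyclase reporter cell assay. Where repeated, individual determinations were averaged.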

Row | Structure (SMILES) | MEC [µM]
1 | Cc1nc2c(OCc3c(F)cccc3F)cccn2c1C(=O)NC1CC2CCCC(C1)N2C1CC1 (stereo not shown) [Example 1, N-(9-Cyclopropyl-9-azabicyclo[3.3.1]non-3-yl)-8-[(2,6-difluorobenzyl)oxy]-2-methylimidazo[1,2-a]pyridine-3-carboxamide] | 0.10
2 | Cc1nc2c(OCc3c(F)cccc3F)cccn2c1C(=O)NC(CN)c1ccc(F)cc1F (stereo not drawn) [Example 21, ent-N-[2-Amino-1-(2,4-difluorophenyl)ethyl]-8-[(2,6-difluorobenzyl)oxy]-2-methylimidazo[1,2-a]-pyridine-3-carboxamide] | 0.30
3 | Cc1nc2c(OCc3c(F)cccc3F)cc(Cl)cn2c1C(=O)NC(C)CN (stereo not drawn) [Example 22, ent-N-(1-aminopropan-2-yl)-6-chloro-8-[(2,6-difluorobenzyl)oxy]-2-methylimidazo[1,2-a]-pyridine-3-carboxamide] | 0.30
4 | Cc1nc2c(OCc3c(F)cccc3F)cc(Cl)cn2c1C(=O)NC(C)(C)CN [Example 24, N-(1-amino-2-methylpropan-2-yl)-6-chloro-8-[(2,6-difluorobenzyl)oxy]-2-methylimidazo[1,2-a]pyridine-3-carboxamide] | 0.65
5 | Cc1cc(OCc2c(F)cccc2F)c2nc(C)c(C(=O)NC(C)(C)CN)n2c1 [Example 26, N-(1-amino-2-methylpropan-2-yl)-8-[(2,6-difluorobenzyl)oxy]-2,6-dimethylimidazo [1,2-a]-pyridine-3-carboxamide] | 0.30
6 | Cc1nc2c(OCc3c(F)cccc3F)cccn2c1C(=O)NC1CC2CCCC(C1)N2 (stereo not shown) [Example 27, N-(9-azabicyclo[3.3.1]non-3-yl)-8-[(2,6-difluorobenzyl)oxy]-2-methylimidazo[1,2-a]-pyridine-3-carboxamide] | 1.00
7 | Cc1nc2c(OCc3c(F)cccc3F)cc(Cl)cn2c1C(=O)NCCC1(N)CCCCC1 [Example 33, N-[2-(1-Aminocyclohexyl)ethyl]-6-chloro-8-[(2,6-difluorobenzyl)oxy]-2-methylimidazo[1,2-a]-pyridine-3-carboxamide] | 0.30
8 | CC[C@@H](N)CNC(=O)c1c(C)nc2c(OCc3c(F)cccc3F)cc(Cl)cn12 [Example 35, ent-N-[(2R)-2-aminobutyl]-6-chloro-8-[(2,6-difluorobenzyl)oxy]-2-methylimidazo[1,2-a]-pyridine-3-carboxamide] | 1.00
9 | Cc1nc2c(OCc3c(F)cccc3F)cc(Cl)cn2c1C(=O)NCCN [Example 36, N-(2-aminoethyl)-6-chloro-8-[(2,6-difluorobenzyl)oxy]-2-methylimidazo[1,2-a]-pyridine-3-carboxamide] | 1.00
10 | Cc1nc2c(OCc3c(F)cccc3F)cc(Cl)cn2c1C(=O)NCCCN [Example 37, N-(3-aminopropyl)-6-chloro-8-[(2,6-difluoro-benzyl)oxy]-2-methylimidazo[1,2-a]pyridine-3-carboxamide] | 1.00
11 | Cc1nc2c(OCc3c(F)cccc3F)cccn2c1C(=O)NCC1(N)CC1 [Example 38, N-[(1-aminocyclopropyl)methyl]-8-[(2,6-difluorobenzyl)oxy]-2-methylimidazo[1,2-a]-pyridine-3-carboxamide] | 0.40
12 | Cc1nc2c(OCc3c(F)cccc3F)cc(Cl)cn2c1C(=O)NCC1(N)CC1 [Example 39, N-[(1-aminocyclopropyl)methyl]-6-chloro-8-[(2,6-difluorobenzyl)oxy]-2-methylimidazo[1,2-a]pyridine-3-carboxamide] | 0.10
13 | Cc1cc(OCc2c(F)cccc2F)c2nc(C)c(C(=O)NCC3(N)CC3)n2c1 [Example 40, N-[(1-aminocyclopropyl)methyl]-8-[(2,6-difluorobenzyl)oxy]-2,6-dimethylimidazo[1,2-a]-pyridine-3-carboxamide] | 0.10
14 | Cc1nc2c(OCc3c(F)cccc3F)cccn2c1C(=O)NCC1(N)CCCC1 [Example 41, N-[(1-aminocyclopentyl)methyl]-8-[(2,6-difluorobenzyl)oxy]-2-methylimidazo[1,2-a]-pyridine-3-carboxamide] | 0.30
15 | Cc1nc2c(OCc3c(F)cccc3F)cc(Cl)cn2c1C(=O)NCC1(N)CCCC1 [Example 42, N-[(1-aminocyclopentyl)methyl]-6-chloro-8-[(2,6-difluorobenzyl)oxy]-2-methylimidazo[1,2-a]pyridine-3-carboxamide] | 1.00
16 | Cc1nc2c(OCC3CCCCC3)cccn2c1C(=O)NC(CN)c1ccc(F)cc1F (stereo not drawn) [Example 45, ent-N-[2-Amino-1-(2,4-difluorophenyl)ethyl]-8-(cyclohexylmethoxy)-2-methylimidazo[1,2-a]-pyridine-3-carboxamide] | 1.00
17 | Cc1cc(OCc2c(F)cccc2F)c2nc(C)c(C(=O)NC(C)CN)n2c1 (stereo not drawn) [Example 48, ent-N-(1-Aminopropan-2-yl)-8-[(2,6-difluorobenzyl)oxy]-2,6-dimethylimidazo[1,2-a]pyridine-3-carboxamide] | 1.00

Next, values leading:

Row | MEC [µM] | Structure (SMILES)
18 | 1.00 | Cc1nc2c(OCc3c(F)cccc3F)cccn2c1C(=O)NC(CN1CCOCC1)c1ccccc1 (single isomer, unassigned; ent-8) [Example 183, ent-8-[(2,6-Difluorobenzyl)oxy]-2-methyl-N-[2-(morpholin-4-yl)-1-phenylethyl]imidazo[1,2-a]-pyridine-3-carboxamide]
19 | 0.30 | Cc1cc(OCc2c(F)cccc2F)c2nc(C)c(C(=O)NCC(C)N3CCOCC3)n2c1 (single isomer, unassigned; ent-8) [Example 186, ent-8-[(2,6-Difluorobenzyl)oxy]-2,6-dimethyl-N-[2-(morpholin-4-yl)propyl]imidazo[1,2-a]-pyridine-3-carboxamide]
20 | 0.30 | Cc1cc(OCc2c(F)cccc2F)c2nc(C)c(C(=O)NCC(C)N3CCOCC3)n2c1 (single isomer, unassigned; ent-8) [Example 187, ent-8-[(2,6-Difluorobenzyl)oxy]-2,6-dimethyl-N-[2-(morpholin-4-yl)propyl]imidazo[1,2-a]-pyridine-3-carboxamide]
21 | 1.00 | Cc1nc2c(OCc3c(F)cccc3F)cccn2c1C(=O)NCC(C(C)C)N(C)C (single isomer, unassigned; ent-8) [Example 188, ent-8-[(2,6-Difluorobenzyl)oxy]-N-[2-(dimethylamino)-3-methylbutyl]-2-methylimidazo[1,2-a]-pyridine-3-carboxamide]
22 | 3.00 | Cc1nc2c(OCc3c(F)cccc3F)cccn2c1C(=O)NCC(C(C)C)N(C)C (single isomer, unassigned; ent-8) [Example 189, ent-8-[(2,6-Difluorobenzyl)oxy]-N-[2-(dimethylamino)-3-methylbutyl]-2-methylimidazo[1,2-a]-pyridine-3-carboxamide]
23 | 0.30 | Cc1nc2c(OCc3c(F)cccc3F)cccn2c1C(=O)NC(CNCC(F)(F)F)c1ccc(F)c(F)c1 (single isomer, unassigned; ent-8) [Example 222, ent-8-[(2,6-Difluorobenzyl)oxy]-N-{1-(3,4-difluorophenyl)-2-[(2,2,2-trifluoroethyl)amino]ethyl}-2-methylimidazo[1,2-a]pyridine-3-carboxamide]
24 | 0.30 | CCC1CC(NC(=O)c2c(C)nc3c(OCc4c(F)cccc4F)cc(C)cn23)c2nc(C(F)(F)F)ccc2N1 (single isomer, unassigned; ent-8) [Example 325, ent-8-[(2,6-Difluorobenzyl)oxy]-N-[2-ethyl-6-(trifluoromethyl)-1,2,3,4-tetrahydro-1,5-naphthyridin-4-yl]-2,6-dimethylimidazo[1,2-a]pyridine-3-carboxamide]
25 | 0.30 | Cc1cc(OCc2c(F)cccc2F)c2nc(C)c(C(=O)NC3CC(C)Nc4ccc(C(F)(F)F)nc43)n2c1 (single isomer, unassigned; ent-8) [Example 326, ent-8-[(2,6-Difluorobenzyl)oxy]-2,6-dimethyl-N-[2-methyl-6-(trifluoromethyl)-1,2,3,4-tetrahydro-1,5-naphthyridin-4-yl]imidazo[1,2-a]pyridine-3-carboxamide]
